O=c1cc(CO)occ1O
solubility (mole fraction)
Conditions | 278.15 K | 283.15 K | 288.15 K | 293.15 K | 298.15 K | 303.15 K | 308.15 K | 313.15 K | 318.15 K | 323.15 K
in THF | 0.00384 | 0.00435 | 0.00541 | 0.00663 | 0.00799 | 0.00961 | 0.0116 | 0.0134 | 0.017 | 0.0199
in acetonitrile | 0.00062 | 0.00078 | 0.00097 | 0.00122 | 0.00151 | 0.00184 | 0.00226 | 0.00276 | 0.00341 | 0.00424
in isopropanol | 0.00213 | 0.00266 | 0.0032 | 0.00392 | 0.00478 | 0.00557 | 0.00667 | 0.00814 | 0.00974 | 0.0116
in methyl acetate | 0.00085 | 0.0011 | 0.00141 | 0.00172 | 0.00213 | 0.0026 | 0.00317 | 0.00385 | 0.00467 | 0.00556
in n-butanol | 0.00193 | 0.00242 | 0.00289 | 0.00364 | 0.00452 | 0.00538 | 0.00646 | 0.00779 | 0.00935 | 0.011
in n-pentanol | 0.00185 | 0.00222 | 0.0028 | 0.00392 | 0.00417 | 0.00506 | 0.00611 | 0.00733 | 0.00882 | 0.0106
in sec-butanol | 0.00202 | 0.00245 | 0.00315 | 0.00387 | 0.00465 | 0.0057 | 0.0069 | 0.00817 | 0.00981 | 0.0117

— BigSolDB 2.1
